Reference: patent US20220098215A1, “DUOCARMYCIN ANALOGUES” (AUCKLAND UNISERVICES LIMITED, priority 2019, published 2022)
“Also recorded” adds a separate entry of the source. Read-outs that look alike come from different tables or passages of the source.

Key:
[1] = Calculated lipophilicity, ChemDraw Professional; details: Table 3; difference CBI minus MBO, same side chain
Method: The lipophilicity was calculated for the representative compounds of the invention using the ChemDraw Professional v.17.0.0 software package (Perkin Elmer Informatics Inc).
(§1) Lipophilicity of small molecule compounds can be calculated in many different ways (reviewed for example in J. Pharm. Sci. (2009) 98, 861). To complement the data provided in Example 6 the calculated lipophilicity of several compounds of the present invention was compared to that of the seco-CBI analogues bearing the same minor groove binding side chain, using four different software packages, i.e. ChemDraw Professional (Perkin Elmer Informatics Inc) as in Example 6, ACD/log P (Advanced Chemistry Development), XLOGP3 (Shanghai Institute of Organic Chemistry), and MLOGP (Talete SRL, Milano, Italy), with the last three accessed via SwissADME (http://swissadme.ch/, Swiss Institute of Bioinformatics). The structures of the compounds are shown (where DNA binding units A, D, E and F, when attached to the 2-methylbenzoxazole alkylating subunit, represent compounds 23, 59, 66 and 74, respectively) and the calculated log P values are collected in Table 3.

ovarian carcinoma SKOV3 = experiment: Cytotoxicity: inhibition of proliferation, sulforhodamine B staining; assay type: cell-based, human; details: for IC50: Homo sapiens; for differential cytotoxic potency between enantiomers 82 and 83: SKOV3
Method: (§2) The cytotoxicity of the payloads of the invention was determined by measuring the inhibition of proliferation of two human tumour cell lines, the cervical carcinoma SiHa, and the ovarian carcinoma SKOV3. Log-phase monolayers were exposed continuously to the payloads for 5 days in 96-well plates, followed by sulforhodamine B staining. The IC50 was determined by interpolation as the drug concentration required to inhibit cell density to 50% of that of the untreated controls on the same plate. Every plate contained the reference compound seco-CBI-TMI as an internal control.
(§3) The cytotoxicity of the payloads of the invention was determined by measuring the inhibition of proliferation of two human tumour cell lines, the cervical carcinoma SiHa, and the ovarian carcinoma SKOV3, following the general procedure described in Example 7. In the new determinations the stock solution of payload in DMSO was diluted in series prior to addition to the cell-containing wells of the 96-well plate. The cytotoxicity determinations were repeated several times (n=3-7 depending on compound and cell line) and the results are collected in Table 4.

cervical carcinoma SiHa = experiment: as above; assay type: cell-based, human; details: for IC50: Homo sapiens
Method: as §2, §3

[2] = Calculated lipophilicity, ACD/log P; details: Table 3; difference CBI minus MBO, same side chain
Description: as §1

[3] = Aqueous stability in neutral buffer (LC-MS / HPLC); assay type: physicochemical; details: 4 μM in Tris buffer (pH 7.4) containing 10% DMF at 37° C., monitored over 300-500 min
Method: The aqueous stability of 23 and reference compound seco-CBI-TMI was investigated by LC-MS analysis. Samples containing the payloads at a concentration of 4 μM in Tris buffer (pH 7.4) containing 10% DMF at 37° C. were monitored at regular intervals over 300-500 min.
The aqueous stability of compounds 52, 59 and 66 was investigated by HPLC analysis. The conditions were the same as those described in Example 8, i.e. samples contained the payloads at a concentration of 4 μM in Tris buffer (pH 7.4) containing 10% DMF at 37° C. In this experiment the solutions were monitored at hourly intervals over 8 h.

[4] = Bioorg. Med. Chem. Lett. (2010) 20, 1854; cited from earlier work
[5] = SK-OV-3, Example 25, Table 4, DMSO stock diluted in series before addition, n=3-7, read-out: IC50 SKOV3 Average
[6] = SK-OV-3, 120 h, Example 7, Table 2, continuous exposure 5 days, 96-well plates, read-out: IC50 SKOV3

COc1ccc(/C=C/C(=O)N2CC(CCl)c3c2cc(O)c2oc(C)nc32)cc1O (stereo not shown) [Compound 59, (E)-1-(8-(Chloromethyl)-4-hydroxy-2-methyl-7,8-dihydro-6H-oxazolo[4,5-e]indol-6-yl)-3-(3-hydroxy-4-methoxyphenyl) prop-2-en-1-one]
LogP ChemDraw Δ [1]: 1.48
IC50 (ovarian carcinoma SKOV3; [5]): 0.5 nM
IC50 (cervical carcinoma SiHa; read-out: IC50 SiHa Average): 0.62 nM
LogP ACD Δ [2]: 1.61

COc1cc2cc(C(=O)N3C[C@H](CCl)c4c3cc(O)c3oc(C)nc43)[nH]c2c(OC)c1OC [Compound 83, (R)-(8-(chloromethyl)-4-hydroxy-2-methyl-7,8-dihydro-6H-oxazolo[4,5-e]indol-6-yl)(5,6,7-trimethoxy-1H-indol-2-yl)methanone]
IC50 (ovarian carcinoma SKOV3; [5]): 33 nM
differential cytotoxic potency between enantiomers 82 and 83 (ovarian carcinoma SKOV3): 110 fold
differential cytotoxic potency between enantiomers 82 and 83 (cervical carcinoma SiHa): 93 fold
IC50 (cervical carcinoma SiHa; read-out: IC50 SiHa Average): 14 nM

COc1ccc2sc(C(=O)N3CC(CCl)c4c3cc(O)c3oc(C)nc43)cc2c1 (stereo not shown) [Compound 65, (8-(Chloromethyl)-4-hydroxy-2-methyl-7,8-dihydro-6H-oxazolo[4,5-e]indol-6-yl)(5-methoxybenzo[b]thiophen-2-yl)methanone]
IC50 (ovarian carcinoma SKOV3; [5]): 1.7 nM
IC50 (cervical carcinoma SiHa; read-out: IC50 SiHa Average): 2.7 nM

COc1cc2cc(C(=O)N3CC(CCl)c4c3cc(O)c3oc(C)nc43)[nH]c2c(OC)c1OC (stereo not shown) [Compound 23, (8-(Chloromethyl)-4-hydroxy-2-methyl-7,8-dihydro-6H-oxazolo[4,5-e]indol-6-yl)(5,6,7-trimethoxy-1H-indol-2-yl)methanone]
LogP ChemDraw Δ [1]: 1.48
IC50 (ovarian carcinoma SKOV3; [6]): 0.54 nM
IC50 (ovarian carcinoma SKOV3; [5]): 0.32 nM
IC50 (cervical carcinoma SiHa; 120 h, read-out: IC50 SiHa): 0.28 nM
IC50 (cervical carcinoma SiHa; read-out: IC50 SiHa Average): 0.18 nM
aqueous stability (LC-MS) [3]: not stable under these conditions and was rapidly converted to a variety of products
LogP ACD Δ [2]: 1.67

Cc1nc2c3c(cc(OCc4ccccc4)c2o1)N(C(=O)OC(C)(C)C)CC3CCl (stereo not shown)
melting point: 142 to 143 °C

Cc1nc2c3c(cc(O)c2o1)N(C(=O)OC(C)(C)C)CC3CCl (stereo not shown)
melting point: 234 to 238 °C

COc1cc2cc(C(=O)N3CC(CCl)c4c3cc(O)c3ccccc43)[nH]c2c(OC)c1OC (stereo not shown) [Seco-CBI-TMI, reference compound]
IC50 (ovarian carcinoma SKOV3; [6]): 0.58 nM
IC50 (ovarian carcinoma SKOV3; [5]): 0.27 nM
IC50 (cervical carcinoma SiHa; 120 h, read-out: IC50 SiHa): 0.23 nM
IC50 (cervical carcinoma SiHa; read-out: IC50 SiHa Average): 0.16 nM
aqueous stability (LC-MS) [3]: clean conversion to the cyclopropyl form (CBI-TMI), which was stable under these conditions; also recorded: prolonged stability

COCCOc1ccc2[nH]c(C(=O)N3CC(CCl)c4c3cc(O)c3oc(C)nc43)cc2c1 (stereo not shown) [Compound 66, (8-(Chloromethyl)-4-hydroxy-2-methyl-7,8-dihydro-6H-oxazolo[4,5-e]indol-6-yl)(5-(2-methoxyethoxy)-1H-indol-2-yl)methanone]
LogP ChemDraw Δ [1]: 1.48
IC50 (ovarian carcinoma SKOV3; [5]): 0.17 nM
IC50 (cervical carcinoma SiHa; read-out: IC50 SiHa Average): 0.2 nM
LogP ACD Δ [2]: 1.67

CC(=O)Nc1cnc2[nH]c(C(=O)N3CC(CCl)c4c3cc(O)c3oc(C)nc43)cc2c1 (stereo not shown) [Compound 70, N-(2-(8-(Chloromethyl)-4-hydroxy-2-methyl-7,8-dihydro-6H-oxazolo[4,5-e]indole-6-carbonyl)-1H-pyrrolo[2,3-b]pyridin-5-yl)acetamide]
IC50 (ovarian carcinoma SKOV3; [5]): > 20 nM
IC50 (cervical carcinoma SiHa; read-out: IC50 SiHa Average): > 20 nM

COC(=O)c1nc2c(O)cc3c(c2o1)C(CCl)CN3C(=O)c1cc2cc(OC)c(OC)c(OC)c2[nH]1 (stereo not shown) [seco-COI-TMI]
cytotoxicity relative to reference compounds / CBI analogues [4]: several hundred fold less cytotoxic

COc1cc2cc(C(=O)N3CC(CCl)c4c3cc(OCc3ccccc3)c3oc(C)nc43)[nH]c2c(OC)c1OC (stereo not shown)
melting point: 225 to 227 °C

CC(=O)Nc1ccc2nc(C(=O)N3CC(CCl)c4c3cc(O)c3oc(C)nc43)cn2c1 (stereo not shown) [Compound 74, N-(2-(8-(Chloromethyl)-4-hydroxy-2-methyl-7,8-dihydro-6H-oxazolo[4,5-e]indole-6-carbonyl)imidazo[1,2-a]pyridin-6-yl)acetamide]
LogP ChemDraw Δ [1]: 1.48
IC50 (ovarian carcinoma SKOV3; [5]): 16.4 nM
IC50 (cervical carcinoma SiHa; read-out: IC50 SiHa Average): 13 nM
LogP ACD Δ [2]: 1.66

Cc1nc2c3c(cc(O)c2o1)N(C(=O)c1cc2cc(NC(=O)c4cc5cc(OCCN(C)C)ccc5[nH]4)ccc2[nH]1)CC3CCl (stereo not shown) [Compound 53, N-(2-(8-(Chloromethyl)-4-hydroxy-2-methyl-7,8-dihydro-6H-oxazolo[4,5-e]indole-6-carbonyl)-1H-indol-5-yl)-5-(2-(dimethylamino)ethoxy)-1H-indole-2-carboxamide]
IC50 (ovarian carcinoma SKOV3; [6]): 9 nM
IC50 (ovarian carcinoma SKOV3; [5]): 4.2 nM
IC50 (cervical carcinoma SiHa; 120 h, read-out: IC50 SiHa): 7.2 nM
IC50 (cervical carcinoma SiHa; read-out: IC50 SiHa Average): 2.9 nM

COc1cc2cc(C(=O)N3C[C@@H](CCl)c4c3cc(O)c3oc(C)nc43)[nH]c2c(OC)c1OC [Compound 82, (S)-(8-(Chloromethyl)-4-hydroxy-2-methyl-7,8-dihydro-6H-oxazolo[4,5-e]indol-6-yl)(5,6,7-trimethoxy-1H-indol-2-yl)methanone]
IC50 (ovarian carcinoma SKOV3; [5]): 0.3 nM
differential cytotoxic potency between enantiomers 82 and 83 (ovarian carcinoma SKOV3): 110 fold
differential cytotoxic potency between enantiomers 82 and 83 (cervical carcinoma SiHa): 93 fold
IC50 (cervical carcinoma SiHa; read-out: IC50 SiHa Average): 0.15 nM

COc1ccc(/C=C/C(=O)Nc2ccc3[nH]c(C(=O)N4CC(CCl)c5c4cc(O)c4oc(C)nc54)cc3c2)cc1 (stereo not shown) [Compound 63, (E)-N-(2-(8-(Chloromethyl)-4-hydroxy-2-methyl-7,8-dihydro-6H-oxazolo[4,5-e]indole-6-carbonyl)-1H-indol-5-yl)-3-(4-methoxyphenyl)acrylamide]
IC50 (ovarian carcinoma SKOV3; [5]): 0.61 nM
IC50 (cervical carcinoma SiHa; read-out: IC50 SiHa Average): 0.69 nM
